{"source": "patent US11254717B2", "about": "“Antimicrobial peptide Sparamosin from Scylla paramamosain and application thereof” (priority 2018, dated 2022)", "key": {"[1]": {"test_system": "normal mouse liver cell line (AML12 cell line)", "assay": "Cytotoxicity, MTS-PMS assay", "type": "cell-based", "conditions": "normal cultured mouse hepatocytes", "description": "(§1) The cytotoxicity effect of synthetic Sparamosin26-54 was evaluated using normal mouse liver cell line (AML12 cell line) and normal human liver cell line (L02 cell line).\n(§2) (1) AML12 or L02 cells were harvested, and the cell concentration was adjusted to 10^5 cells/mL.\n(§3) (2) 100 μL of AML12 or L02 cells were seeded in 96-wells and incubated at 37° C.\n(§4) (3) Cells were treated with different concentrations of Sparamosin26-54 (0, 0.1, 1, 10, 100 μg/mL) for 24 h at 37° C.\n(§5) (4) Cells were treated with 20 μL of MTS-PMS reagent for another 2 hours, and then the absorbance value of each well was measured at 492 nm (see FIG. 4)."}, "[2]": {"test_system": "normal human liver cell line (L02 cell line)", "assay": "Cytotoxicity, MTS-PMS assay", "type": "cell-based", "conditions": "normal cultured human hepatocytes", "description": "as §1, §2, §3, §4, §5"}, "[3]": {"test_system": "various Gram-positive bacteria and Gram-negative bacteria"}, "[4]": {"test_system": "Corynebacterium glutamicum"}}, "note": "Ends that are not written are not given here. Peptide text beside a SMILES is read from it.", "data": [{"compound": "CSCC[C@H](NC(=O)[C@H](CS)NC(=O)[C@@H](NC(=O)[C@H](Cc1ccccc1)NC(=O)[C@H](CC(N)=O)NC(=O)[C@H](CC(C)C)NC(=O)[C@H](CCCNC(=N)N)NC(=O)[C@H](CS)NC(=O)[C@H](CCCNC(=N)N)NC(=O)CNC(=O)[C@H](CC(C)C)NC(=O)[C@H](Cc1ccccc1)NC(=O)[C@H](CC(=O)O)NC(=O)[C@H](CCCNC(=N)N)NC(=O)[C@H](CCCCN)NC(=O)[C@H](Cc1ccc(O)cc1)NC(=O)[C@H](CS)NC(=O)[C@H](CCCCN)NC(=O)[C@H](CCCCN)NC(=O)[C@H](CCCNC(=N)N)NC(=O)[C@H](CS)NC(=O)[C@@H]1CCCN1C(=O)[C@H](CC(N)=O)NC(=O)[C@@H]1CCCN1C(=O)CNC(=O)[C@H](CC(C)C)NC(=O)CN)[C@@H](C)O)C(=O)N[C@@H](Cc1ccccc1)C(=O)NCC(=O)O", "note": "[Sparamosin26-54] (H-GLGPNPCRKKCYKRDFLGRCRLNFTCMFG-OH; N-terminus and C-terminus assumed)", "values": [{"measurement": "MBC: minimum bactericidal concentration", "setting": "Cryptococcus neoformans", "value": 12, "unit": "µM"}, {"measurement": "MIC: minimum inhibitory concentration", "setting": "Cryptococcus neoformans", "value": "1.5 to 3", "unit": "µM"}, {"measurement": "MBC: minimum bactericidal concentration", "setting": "Pseudomonas fluorescens", "value": 6, "unit": "µM"}, {"measurement": "MIC: minimum inhibitory concentration", "setting": "Pseudomonas fluorescens", "value": "3 to 6", "unit": "µM"}, {"measurement": "MBC: minimum bactericidal concentration", "setting": "Pseudomonas aeruginosa", "value": 12, "unit": "µM"}, {"measurement": "MIC: minimum inhibitory concentration", "setting": "Pseudomonas aeruginosa", "value": "6 to 12", "unit": "µM"}, {"measurement": "MIC value", "setting": "various molds", "value": "6 to 24", "unit": "µM"}, {"measurement": "MBC: minimum bactericidal concentration", "setting": "Staphylococcus aureus", "value": 12, "unit": "µM"}, {"measurement": "MIC: minimum inhibitory concentration", "setting": "Staphylococcus aureus", "value": "3 to 6", "unit": "µM"}, {"measurement": "cytotoxic effect", "setting": "[1]", "value": "no cytotoxic effect"}, {"measurement": "cytotoxic effect", "setting": "[2]", "value": "no cytotoxic effect"}, {"measurement": "MBC: minimum bactericidal concentration", "setting": "Escherichia coli", "value": 12, "unit": "µM"}, {"measurement": "MIC: minimum inhibitory concentration", "setting": "Escherichia coli", "value": "6 to 12", "unit": "µM"}, {"measurement": "MBC: minimum bactericidal concentration", "setting": "Aspergillus ochraceus", "value": 48, "unit": "µM"}, {"measurement": "MIC: minimum inhibitory concentration", "setting": "Aspergillus ochraceus", "value": "3 to 6", "unit": "µM"}, {"measurement": "MBC: minimum bactericidal concentration", "setting": "Pichia pastoris (GS115)", "value": 3, "unit": "µM"}, {"measurement": "MIC: minimum inhibitory concentration", "setting": "Pichia pastoris (GS115)", "value": "1.5 to 3", "unit": "µM"}, {"measurement": "minimum inhibitory concentration (MIC) value", "setting": "[3]", "value": "3 to 12", "unit": "µM"}, {"measurement": "MBC: minimum bactericidal concentration", "setting": "Neurospora crasa", "value": 48, "unit": "µM"}, {"measurement": "MBC: minimum bactericidal concentration", "setting": "Aspergillus niger", "value": 24, "unit": "µM"}, {"measurement": "MIC: minimum inhibitory concentration", "setting": "Aspergillus niger", "value": "6 to 12", "unit": "µM"}, {"measurement": "MBC: minimum bactericidal concentration", "setting": "[4]", "value": 6, "unit": "µM"}, {"measurement": "MIC: minimum inhibitory concentration", "setting": "[4]", "value": "1.5 to 3", "unit": "µM"}, {"measurement": "MBC: minimum bactericidal concentration", "setting": "Aspergillus flavus", "value": ">48", "unit": "µM"}, {"measurement": "MIC: minimum inhibitory concentration", "setting": "Aspergillus flavus", "value": ">48", "unit": "µM"}, {"measurement": "MBC: minimum bactericidal concentration", "setting": "Fusarium oxysporum", "value": 12, "unit": "µM"}, {"measurement": "MBC: minimum bactericidal concentration", "setting": "Bacillus cereus", "value": 24, "unit": "µM"}, {"measurement": "MIC: minimum inhibitory concentration", "setting": "Bacillus cereus", "value": "6 to 12", "unit": "µM"}, {"measurement": "MBC: minimum bactericidal concentration", "setting": "Aspergillus fumigatus", "value": 24, "unit": "µM"}, {"measurement": "MIC: minimum inhibitory concentration", "setting": "Aspergillus fumigatus", "value": "12 to 24", "unit": "µM"}, {"measurement": "MBC: minimum bactericidal concentration", "setting": "Candida albicans", "value": ">48", "unit": "µM"}, {"measurement": "MIC: minimum inhibitory concentration", "setting": "Candida albicans", "value": ">48", "unit": "µM"}]}, {"compound": "APVPDPDSEQSNISEVLKVQHSIFSGLGPNPCRKKCYKRDFLGRCRLNFTCMFG (cysteines drawn unpaired) [Sparamosin]", "values": [{"measurement": "MBC: minimum bactericidal concentration", "setting": "Cryptococcus neoformans", "value": ">48", "unit": "µM"}, {"measurement": "MIC: minimum inhibitory concentration", "setting": "Cryptococcus neoformans", "value": ">48", "unit": "µM"}, {"measurement": "MBC: minimum bactericidal concentration", "setting": "Pseudomonas fluorescens", "value": 24, "unit": "µM"}, {"measurement": "MIC: minimum inhibitory concentration", "setting": "Pseudomonas fluorescens", "value": "12 to 24", "unit": "µM"}, {"measurement": "MBC: minimum bactericidal concentration", "setting": "Staphylococcus aureus", "value": 48, "unit": "µM"}, {"measurement": "MIC: minimum inhibitory concentration", "setting": "Staphylococcus aureus", "value": "12 to 24", "unit": "µM"}, {"measurement": "MBC: minimum bactericidal concentration", "setting": "Escherichia coli", "value": 24, "unit": "µM"}, {"measurement": "MIC: minimum inhibitory concentration", "setting": "Escherichia coli", "value": "12 to 24", "unit": "µM"}, {"measurement": "MBC: minimum bactericidal concentration", "setting": "Pichia pastoris (GS115)", "value": 24, "unit": "µM"}, {"measurement": "MIC: minimum inhibitory concentration", "setting": "Pichia pastoris (GS115)", "value": "6 to 12", "unit": "µM"}, {"measurement": "MBC: minimum bactericidal concentration", "setting": "Bacillus cereus", "value": ">48", "unit": "µM"}, {"measurement": "MIC: minimum inhibitory concentration", "setting": "Bacillus cereus", "value": "24 to 48", "unit": "µM"}]}]}
